The text below walks through data of ChEMBL document CHEMBL6083273, “Targeting Periplakin of Novel Benzenesulfonamides as Highly Selective Agonists for the Treatment of Vitiligo” (2024).

Broadly, the Emax is the maximal effect, on the per cent scale that the assay sets.

Test [1] is filed under the species Danio rerio. The test is described as follows: Induction of melanogenesis in zebrafish treated for 24 hrs by absorbance based assay (reference value: 98.2 to 100.3 %). Type of test: functional.
The species entered for test [2] is Danio rerio. The test is described as follows: Induction of melanogenesis in zebrafish treated for 24 hrs by absorbance based assay. Type of test: functional, organism-based.
The species entered for test [3] is Danio rerio. The test is described as follows: Induction of melanogenesis in zebrafish at 40 uM treated for 24 hrs by absorbance based assay relative to control. Type of test: functional.
The species entered for test [4] is Danio rerio. The experiment in a line: Induction of melanogenesis in zebrafish at 0.1 nM treated for 24 hrs by absorbance based assay. Type of test: functional, organism-based.
Test [5] is filed under the species Danio rerio. The test is described as follows: Induction of melanogenesis in zebrafish at 40 uM treated for 24 hrs by absorbance based assay. It counts as functional, organism-based.
The species named for test [6] is Danio rerio. The experiment in a line: Effect on tryptophan metabolism in zebrafish embryo assessed as IA metabolite level at 10 uM by LC/MS analysis. Type of test: functional.
For test [7], the species on record is Danio rerio. The experiment in a line: Effect on tryptophan metabolism in zebrafish embryo assessed as Trp metabolite level at 10 uM by LC/MS analysis. It counts as functional.
The species entered for test [8] is Danio rerio. The test is described as follows: Effect on tryptophan metabolism in zebrafish embryo assessed as 5-HTP metabolite level at 10 uM by LC/MS analysis. Type of test: functional.
The species entered for test [9] is Danio rerio. The test is described as follows: Effect on tryptophan metabolism in zebrafish embryo assessed as KYNA metabolite level at 10 uM by LC/MS analysis. Type of test: functional.
For test [10], the species on record is Danio rerio. The test is described as follows: Effect on tryptophan metabolism in zebrafish embryo assessed as ICA metabolite level at 10 uM by LC/MS analysis. It counts as functional.
The species entered for test [11] is Danio rerio. The test is described as follows: Effect on tryptophan metabolism in zebrafish embryo assessed as NAS metabolite level at 10 uM by LC/MS analysis. Type of test: functional.
Test [12] is filed under the species Danio rerio. The experiment in a line: Effect on tryptophan metabolism in zebrafish embryo assessed as ILA metabolite level at 10 uM by LC/MS analysis. Type of test: functional.
The species entered for test [13] is Danio rerio. The experiment in a line: Effect on tryptophan metabolism in zebrafish embryo assessed as AA metabolite level at 10 uM by LC/MS analysis. It counts as functional.
The species entered for test [14] is Danio rerio. The test is described as follows: Effect on tryptophan metabolism in zebrafish embryo assessed as IPA metabolite level at 10 uM by LC/MS analysis. Type of test: functional.
The species named for test [15] is Danio rerio. The test is described as follows: Effect on tryptophan metabolism in zebrafish embryo assessed as skatole metabolite level at 10 uM by LC/MS analysis. It counts as functional.
Test [16] is filed under the species Danio rerio. The experiment in a line: Effect on tryptophan metabolism in zebrafish embryo assessed as 3-HK metabolite level at 10 uM by LC/MS analysis. Type of test: functional.
Test [17] is filed under the species Danio rerio. The test is described as follows: Effect on tryptophan metabolism in zebrafish embryo assessed as NA metabolite level at 10 uM by LC/MS analysis. It counts as functional.
The species named for test [18] is Danio rerio. The test is described as follows: Effect on tryptophan metabolism in zebrafish embryo assessed as LE metabolite level at 10 uM by LC/MS analysis. It counts as functional.
The species entered for test [19] is Danio rerio. The test is described as follows: Effect on tryptophan metabolism in zebrafish embryo assessed as 5-HIAA metabolite level at 10 uM by LC/MS analysis. It counts as functional.
For test [20], the species on record is Danio rerio. The test is described as follows: Effect on tryptophan metabolism in zebrafish embryo assessed as Xa metabolite level at 10 uM by LC/MS analysis. It counts as functional.
The species entered for test [21] is Danio rerio. The experiment in a line: Effect on tryptophan metabolism in zebrafish embryo assessed as IAN metabolite level at 10 uM by LC/MS analysis. Type of test: functional.
The species entered for test [22] is Danio rerio. The test is described as follows: Effect on tryptophan metabolism in zebrafish embryo assessed as 3-HAA metabolite level at 10 uM by LC/MS analysis. It counts as functional.
The species named for test [23] is Danio rerio. The experiment in a line: Effect on tryptophan metabolism in zebrafish embryo assessed as IAA metabolite level at 10 uM by LC/MS analysis. Type of test: functional.
The species named for test [24] is Danio rerio. The experiment in a line: Effect on tryptophan metabolism in zebrafish embryo assessed as indole metabolite level at 10 uM by LC/MS analysis. It counts as functional.

Activity calls are given as the source filed them. The calls are words filed in the database; no cut-off is given here.

`Cc1cccc(S(=O)(=O)Nc2ccnc(N[C@@H](C)c3ccc(-c4ccc(F)c(C)c4)cc3)n2)c1`: the Activity in the test filed under Danio rerio [1] was found to be 46.585%.

As for `Cc1cc(-c2ccc([C@H](C)Nc3nccc(NS(=O)(=O)c4ccc5ccccc5c4)n3)cc2)ccc1F`, the Activity in the test listed under Danio rerio [1] was 89.349%.

For `C[C@H](Nc1nccc(NS(=O)(=O)c2cccc([N+](=O)[O-])c2)n1)c1ccccc1`, the Activity in the test filed under Danio rerio [1] stood at 99.105%.

Molecule `COc1ccc(CNc2nccc(NS(=O)(=O)c3cccc([N+](=O)[O-])c3)n2)cc1` came in with an Activity in the test listed under Danio rerio [1] of 132.54%.

Regarding `C[C@H](Nc1nccc(NS(=O)(=O)c2cccc([N+](=O)[O-])c2)n1)c1ccc(C2CC2)cc1`, the Activity in the test listed under Danio rerio [1] was 149.56%.

`Cc1cc(-c2ccc([C@H](C)Nc3nccc(NS(=O)(=O)c4cc(F)cc(F)c4)n3)cc2)ccc1F`: the Activity in the test filed under Danio rerio [1] is 81.815%.

On to `Cc1cc(-c2ccc([C@H](C)Nc3nccc(NS(=O)(=O)c4ccccc4)n3)cc2)ccc1F`, for which the Activity entry in the test listed under Danio rerio [2] was “Dose-dependent-effect”. In addition, the Emax at 40 µM in the test filed under Danio rerio [3] stood at 139%.

In the test filed under Danio rerio [1], `C[C@H](Nc1nccc(NS(=O)(=O)c2cccc([N+](=O)[O-])c2)n1)c1ccc([N+](=O)[O-])cc1` registered an Activity of 129.75%.

Molecule `O=[N+]([O-])c1cccc(S(=O)(=O)Nc2ccnc(NCc3ccc(C(F)(F)F)cc3)n2)c1` registered an Activity in the test filed under Danio rerio [1] of 93.387%.

In turn, `C[C@H](Nc1nccc(NS(=O)(=O)c2cccc([N+](=O)[O-])c2)n1)c1ccc(-c2ccc3ccccc3c2)cc1` returned an Activity in the test listed under Danio rerio [1] of 77.723%.

`Cc1ccc(CNc2nccc(NS(=O)(=O)c3cccc([N+](=O)[O-])c3)n2)cc1` showed an Activity in the test listed under Danio rerio [1] of 148.37%.

For the molecule `O=[N+]([O-])c1cccc(S(=O)(=O)Nc2ccnc(NCc3ccc(F)cc3)n2)c1`, the Activity in the test listed under Danio rerio [1] amounted to 115.42%.

In turn, `Cc1ccc(S(=O)(=O)Nc2ccnc(N[C@@H](C)c3ccc(-c4ccc(F)c(C)c4)cc3)n2)cc1` returned an Activity in the test filed under Danio rerio [1] of 135.69%.

Molecule `Cc1cc(-c2ccc([C@H](C)Nc3nccc(NS(=O)(=O)Cc4ccccc4)n3)cc2)ccc1F` came in with an Activity in the test filed under Danio rerio [1] of 132.22%.

`Cc1cc(-c2ccc([C@H](C)Nc3nccc(NS(=O)(=O)c4ccccc4C)n3)cc2)ccc1F` gave an Activity in the test filed under Danio rerio [1] of 63.17%.

On to `C=C1/C(=C\C=C2/CCC[C@]3(C)[C@@H]([C@H](C)/C=C/[C@@H](O)C4CC4)CC[C@@H]23)C[C@@H](O)C[C@@H]1O`, for which, in the test listed under Danio rerio [4], the result was Active.

In turn, `C[C@H](Nc1nccc(NS(=O)(=O)c2cccc([N+](=O)[O-])c2)n1)c1ccc(-c2ccccc2)cc1` came in with an Activity in the test listed under Danio rerio [1] of 106.72%.

In the case of `Cc1cc(-c2ccc([C@H](C)Nc3nccc(NS(=O)(=O)c4cc(C(F)(F)F)cc(C(F)(F)F)c4)n3)cc2)ccc1F`, in the test listed under Danio rerio [1], the Activity was 114.22%.

`COc1ccc(S(=O)(=O)Nc2ccnc(N[C@@H](C)c3ccc(-c4ccc(F)c(C)c4)cc3)n2)cc1`: the Activity in the test listed under Danio rerio [1] was determined as 67.56%.

`C[C@H](Nc1nccc(NS(=O)(=O)c2cccc([N+](=O)[O-])c2)n1)c1ccc(-c2cccs2)cc1`: the Activity in the test listed under Danio rerio [1] worked out at 94.688%.

In turn, `Cc1cc(-c2ccc([C@H](C)Nc3nccc(NS(=O)(=O)c4cccc(C(F)(F)F)c4)n3)cc2)ccc1F` showed an Activity in the test filed under Danio rerio [1] of 58.78%.

As for `O=[N+]([O-])c1cccc(S(=O)(=O)Nc2ccnc(Nc3ccccc3)n2)c1`, in the test filed under Danio rerio [1], the Activity worked out at 155.77%.

Turning to `C[C@H](Nc1nccc(NS(=O)(=O)c2cccc([N+](=O)[O-])c2)n1)c1ccc(-c2ccc(F)c(COCCCNC(=O)CCCC[C@@H]3SC[C@@H]4NC(=O)N[C@@H]43)c2)cc1`, in the test filed under Danio rerio [5], the outcome was Active.

Regarding `Cc1cc(-c2ccc([C@H](C)Nc3nccc(NS(=O)(=O)c4ccc(F)cc4)n3)cc2)ccc1F`, the Activity is 21.42 nmol/kg in the test filed under Danio rerio [6]; 234150.9 nmol/kg in the test filed under Danio rerio [7]; 42.55 nmol/kg in the test listed under Danio rerio [8]; 1.12 nmol/kg in the test filed under Danio rerio [9]; 25.11 nmol/kg in the test filed under Danio rerio [10]; 0.09 nmol/kg in the test filed under Danio rerio [11]. Moreover, the Activity in the test filed under Danio rerio [12] was 108.22 nmol/kg; in the test filed under Danio rerio [13], 13.62 nmol/kg; in the test listed under Danio rerio [14], 22.24 nmol/kg; in the test filed under Danio rerio [15], 506.87 nmol/kg; in the test listed under Danio rerio [16] it was 109.36 nmol/kg; in the test filed under Danio rerio [17] it was 2175.78 nmol/kg. Moreover, the Activity turned out to be 135.12% in the test listed under Danio rerio [1]; 53.82 nmol/kg in the test filed under Danio rerio [18]; 105.04 nmol/kg in the test filed under Danio rerio [19]; 468.35 nmol/kg in the test listed under Danio rerio [20]; 16.03 nmol/kg in the test filed under Danio rerio [21]; 1.15 nmol/kg in the test listed under Danio rerio [22]. For the same molecule, the results for the Activity in the test filed under Danio rerio [23] and in the test listed under Danio rerio [24] were 0.85 nmol/kg and 754.01 nmol/kg, respectively.

For `C[C@H](Nc1nccc(NS(=O)(=O)c2cccc([N+](=O)[O-])c2)n1)c1ccc(-c2ccc(F)cc2)cc1`, the Activity in the test listed under Danio rerio [1] came to 146.53%.

In turn, `O=[N+]([O-])c1cccc(S(=O)(=O)Nc2ccnc(NCc3ccccc3)n2)c1` came in with an Activity in the test listed under Danio rerio [1] of 107.18%.
